The values that follow come from patent US8372799B2, “Reverse protein” (Apeptico Forschung und Entwicklung GmbH, priority 2007, dated 2013).

Data set [1] relates to Interleukin-6 (IL-6). The data set is described as follows: Determination of inflammatory parameters: Interleukin-6 release in human fresh blood (ELISA). In kind it is cell-based. The following applies: for inflammatory proteins such as the inflammation marker Interleukin-6 (IL-6): human immune cells from the blood, protein at a small concentration; for Concentration of Interleukin-6 (average of three measurements): human fresh blood, 24 hours at 37° C. The protocol: For the examination, human immune cells from the blood are mixed with protein according to the present invention at a small concentration and are incubated in a manner common in laboratories. Subsequently, marker proteins for inflammations are determined by conventional methods.
Fresh human blood has a very sensitive reaction to pro-inflammatory molecules, among other things, with a release of the inflammation marker Interleukin-6 (IL-6). For determining the pro-inflammatory reaction, samples of human fresh blood with different concentrations of the protein comprising amino acid sequence SEQ ID NO:3 were incubated at the following concentrations: 10 μg/ml, 3 μg/ml, 1 μg/ml. After an incubation of 24 hours at 37° C., the inflammation marker Interleukin-6 was quantitatively determined in the solution via ELISA. LPS served as a positive control.

In data set [2] the test system is pulmonary oedema in Wistar rats. The data set is described as follows: Experimental animal study pulmonary oedema: oxygen content of arterial blood after acid lung rinsing. The following applies: 125 μg protein intratracheal, 180 minutes after lung rinsing, before rinsing = 100%, without protein 20%. In kind it is in vivo, rat. An excerpt:
For the simulation of an acute lung injury and for the formation of a pulmonary oedema, the lungs of laboratory animals, e.g., mice or rats, can be rinsed several times with an acidified saline solution in a manner common in laboratories (for example, according to Isik F. et al., Eur J Cardiothorac Surg (2005); 28: 301-305). The result is a decrease in lung function. If a protein according to the present invention, e.g., a protein of amino acid sequence SEQ ID NO:1, SEQ ID NO:2 or SEQ ID NO:3, is injected as a fog or in an aqueous solution into the lungs of the laboratory animals, a distinct improvement in the lung function will occur within 3 to 5 hours, as indicated by the increased oxygen content in the arterial blood. Thus, a protein according to the present invention can be used for the treatment of oedemas such as pulmonary oedemas.
Male Wistar rats (weighing from 250 g to 350 g) are anesthetized with Rompun® (0.02 ml/100 g) and Ketavet® (0.1 ml/100 g). The respiration is done with a cycle of […], with an inhalation time of 0.2 seconds and an exhalation time of 0.5 seconds. The body temperature ranges, on average, from 37° C. to 39° C. […]
At intervals of 60 minutes each, arterial blood (0.1 ml) is withdrawn from the animals, and the oxygen content is determined in % relative to the normal value.
The verification of the stimulating effect of a protein according to the present invention, e.g., of a protein comprising amino acid sequence SEQ ID NO:1, SEQ ID NO:2 or SEQ ID NO:3, on the lung function is made via experimental animal studies in which a pulmonary oedema is induced. […] In each case, 5 animals are used for objectifying the measured values.
For the intratracheal inhalation, 125 μg protein are, in each case, dissolved in 150 mM saline solution pH 7.3. The oxygen content of the arterial blood is measured immediately before rinsing the lungs, 60 minutes after rinsing the lungs and 180 minutes after rinsing the lungs.
The oxygen content immediately before rinsing the lungs is determined to be 100%. […]

Where a SMILES comes first, the peptide text is derived from it. Bridges are numbered along the chain shown (N, C = ends).

For the compound `CC[C@H](C)[C@H](NC(=O)[C@H](C)N)C(=O)N[C@@H](CCCCN)C(=O)N[C@@H](CO)C(=O)N1CCC[C@H]1C(=O)N[C@H]1CSSC[C@@H](C(=O)N2CCC[C@H]2C(=O)N[C@@H](CO)C(=O)N[C@H](C(=O)N[C@@H](Cc2c[nH]cn2)C(=O)N[C@H](C(=O)O)C(C)C)[C@@H](C)O)NC(=O)CNC(=O)CNC(=O)[C@H](CCCCN)NC(=O)[C@H](C)NC(=O)[C@H](CCC(=O)O)NC(=O)[C@H](C)NC(=O)CNC(=O)[C@H](CCC(=O)O)NC(=O)[C@@H]2CCCN2C(=O)[C@H]([C@@H](C)O)NC(=O)[C@H](CCC(=O)O)NC(=O)[C@H](CCCNC(=N)N)NC(=O)[C@H](CCC(N)=O)NC1=O` [SEQ ID NO:1] (H-AIKSPCQRETPEGAEAKGGCPSTHV-OH; disulfide 6-20), in data set [1], the “inflammatory proteins such as the inflammation marker Interleukin-6 (IL-6)” value was “cannot be detected”. Moreover, the “oxygen content in the arterial blood” value in data set [2] amounted to 60%.
In the same order, the values of `C[C@@H]1NC(=O)CNC(=O)[C@H](CCC(=O)O)NC(=O)[C@@H]2CCCN2C(=O)[C@H]([C@@H](C)O)NC(=O)[C@H](CCC(=O)O)NC(=O)[C@H](CCCNC(=N)N)NC(=O)[C@H](CCC(N)=O)NC(=O)[C@@H](NC(=O)[C@@H]2CCCN2C(=O)[C@H](CO)NC(=O)[C@@H](N)CCCCN)CSSC[C@@H](C(=O)N2CCC[C@H]2C(=O)N[C@@H](CO)C(=O)O)NC(=O)CNC(=O)CNC(=O)[C@H](CCCCN)NC(=O)[C@H](C)NC(=O)[C@H](CCC(=O)O)NC1=O` [SEQ ID NO:2] (H-KSPCQRETPEGAEAKGGCPS-OH; disulfide 4-18) are “cannot be detected” and 63%.
`C[C@@H]1NC(=O)CNC(=O)[C@H](CCC(=O)O)NC(=O)[C@@H]2CCCN2C(=O)[C@H]([C@@H](C)O)NC(=O)[C@H](CCC(=O)O)NC(=O)[C@H](CCCNC(=N)N)NC(=O)[C@H](CCC(N)=O)NC(=O)[C@@H](N)CSSC[C@@H](C(=O)O)NC(=O)CNC(=O)CNC(=O)[C@H](CCCCN)NC(=O)[C@H](C)NC(=O)[C@H](CCC(=O)O)NC1=O` [SEQ ID NO:3, (NH2)Cys-Gln-Arg-Glu-Thr-Pro-Glu-Gly-Ala-Glu-Ala-Lys-Gly-Gly-Cys(COOH)] (H-CQRETPEGAEAKGGC-OH; disulfide 1-15): the “Concentration of Interleukin-6 (average of three measurements)” value in data set [1] (1 μg/ml), in data set [1] (10 μg/ml), in data set [1] (1 nμg/ml) and in data set [1] (3 nμg/ml) was “less than 0.5 pg/ml” in each case. The “inflammatory proteins such as the inflammation marker Interleukin-6 (IL-6)” value in data set [1] is on record as “cannot be detected”. Besides, the “oxygen content in the arterial blood” value in data set [2] came to 70%.
